Measured values: patent US10174044B2, “Fused pyridines as kinase inhibitors” (BRISTOL-MYERS SQUIBB COMPANY, priority 2015, dated 2019)

Molecular target: GST-Xa-hAAK1 (Homo sapiens (Human), UniProt Q2M2I8)
Test: AAK1 Kinase Assay
Type: biochemical
Details: bacterially expressed GST-Xa-hAAK1 3.5 nM; ATP 22 μM; fluoresceinated peptide substrate 1.5 μM; 3 hours at room temperature
Method: The assays were performed in U-bottom 384-well plates. […] The reactions were initiated by the combination of bacterially expressed, GST-Xa-hAAK1 with substrates and test compounds. The reactions were incubated at room temperature for 3 hours and terminated by adding 60 μl of 35 mM EDTA buffer to each sample. The reactions were analyzed on the Caliper LabChip 3000 (Caliper, Hopkinton, Mass.) by electrophoretic separation of the fluorescent substrate and phosphorylated product. […] Compounds were dissolved at 10 mM in dimethylsulfoxide (DMSO) and evaluated at eleven concentrations. IC50 values were derived by non-linear regression analysis.

Chain of GST-Xa-hAAK1 (Q2M2I8 whole entry): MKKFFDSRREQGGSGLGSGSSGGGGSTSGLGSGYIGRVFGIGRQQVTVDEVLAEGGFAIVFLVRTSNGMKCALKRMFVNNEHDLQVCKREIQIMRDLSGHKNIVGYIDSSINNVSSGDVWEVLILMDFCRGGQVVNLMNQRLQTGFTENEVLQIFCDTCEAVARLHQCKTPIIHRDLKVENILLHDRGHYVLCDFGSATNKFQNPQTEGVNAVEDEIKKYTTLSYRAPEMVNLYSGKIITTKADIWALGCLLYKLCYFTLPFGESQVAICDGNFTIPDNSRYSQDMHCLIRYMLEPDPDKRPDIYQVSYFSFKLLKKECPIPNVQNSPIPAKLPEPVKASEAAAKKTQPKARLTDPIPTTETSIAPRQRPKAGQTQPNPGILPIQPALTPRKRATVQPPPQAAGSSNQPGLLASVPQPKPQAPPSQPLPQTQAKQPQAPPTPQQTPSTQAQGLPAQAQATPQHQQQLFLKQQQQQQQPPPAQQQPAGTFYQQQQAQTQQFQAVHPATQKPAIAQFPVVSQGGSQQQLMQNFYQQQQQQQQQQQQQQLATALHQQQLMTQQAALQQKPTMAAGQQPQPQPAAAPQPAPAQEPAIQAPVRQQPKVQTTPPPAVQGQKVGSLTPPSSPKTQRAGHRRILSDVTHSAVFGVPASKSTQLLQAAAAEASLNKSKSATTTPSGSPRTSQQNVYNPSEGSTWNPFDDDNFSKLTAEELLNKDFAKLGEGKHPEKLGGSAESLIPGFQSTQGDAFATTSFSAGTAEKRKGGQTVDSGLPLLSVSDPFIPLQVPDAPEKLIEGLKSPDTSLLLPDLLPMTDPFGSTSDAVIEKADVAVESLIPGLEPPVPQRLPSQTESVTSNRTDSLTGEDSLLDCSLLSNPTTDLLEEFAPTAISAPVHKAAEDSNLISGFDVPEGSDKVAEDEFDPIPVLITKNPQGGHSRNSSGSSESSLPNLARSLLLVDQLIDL

Row | IC50 | Structure (SMILES)
1 | 3.2 nM | [2H]C([2H])([2H])n1c(=O)c2cc(OC[C@@](C)(N)CC(C)C)c(Cl)cc2c2ccnc(C)c21 [Example 22, (S)-8-((2-amino-2,4-dimethylpentyl)oxy)-9-chloro-4-methyl-5-(trideuteromethyl)benzo[c][1,7]naphthyridin-6(5H)-one]
2 | 87 nM | Cc1nccc2c3cc(Cl)c(OC[C@@H](N)CC(C)C)cc3c(=O)n(C)c12 [Example 5, (S)-8-((2-amino-4-methylpentyl)oxy)-9-chloro-4,5-dimethylbenzo[c][1,7]naphthyridin-6(5H)-one]
3 | 7.7 nM | CC(=O)Nc1cc2c(cn1)OCc1cc(OC[C@](C)(N)CC(C)C)ccc1-2 [Example 38, (R)—N-(8-((2-amino-2,4-dimethylpentyl)oxy)-6H-isochromeno[3,4-c]pyridin-2-yl)acetamide]
4 | 181 nM | CC(C)C[C@@](C)(N)COc1ccc2c(c1)COc1cnc(NCC(F)(F)F)cc1-2 [Example 44, (R)-8-((2-amino-2,4-dimethylpentyl)oxy)-N-(2,2,2-trifluoroethyl)-6H-isochromeno[3,4-c]pyridin-2-amine]
5 | 7.8 nM | COC(=O)Nc1nccc2c1OCc1cc(OC[C@@](C)(N)CC(C)C)ccc1-2 [Example 64, (S)-methyl (8-((2-amino-2,4-dimethylpentyl)oxy)-6H-isochromeno[3,4-c]pyridin-4-yl)carbamate]
6 | 1.3 nM | CCOC(=O)Nc1cc2c(cn1)OCc1cc(OC[C@](C)(N)CC(C)C)ccc1-2 [Example 40, (R)-ethyl (8-((2-amino-2,4-dimethylpentyl)oxy)-6H-isochromeno[3,4-c]pyridin-2-yl)carbamate]
7 | 5.4 nM | COC(=O)Nc1cc2c(cn1)OCc1cc(OC[C@@](C)(N)CC(C)C)c(F)cc1-2 [Example 49, (S)-methyl (8-((2-amino-2,4-dimethylpentyl)oxy)-9-fluoro-6H-isochromeno[3,4-c]pyridin-2-yl)carbamate]
8 | 1.7 nM | Cc1nccc2c3cc(Cl)c(OC[C@@](C)(N)CC(C)C)cc3c(=O)n(C)c12 [Example 27, (S)-8-((2-amino-2,4-dimethylpentyl)oxy)-9-chloro-4,5-dimethylbenzo[c][1,7]naphthyridin-6(5H)-one]
9 | 59 nM | Cc1nccc2c3ccc(OC[C@@](C)(N)CC(C)C)c(Cl)c3c(=O)n(C)c12 [Example 15, (S)-8-((2-amino-2,4-dimethylpentyl)oxy)-7-chloro-4,5-dimethylbenzo[c][1,7]naphthyridin-6(5H)-one]
10 | 37 nM | CC(C)C[C@](C)(N)COc1ccc2c(c1)COc1cnc(NS(=O)(=O)C3CC3)cc1-2 [Example 56, (S)—N-(8-((2-amino-2,4-dimethylpentyl)oxy)-6H-isochromeno[3,4-c]pyridin-2-yl)cyclopropanesulfonamide]
